Values of other authors as cited in patent US5198463A, “Oxytocin antagonists” (Merck & Co., Inc., priority 1992, dated 1993).

Tested on: Chinese cabbage seedlings
Conditions: reported by T. Sassa et al.

COc1c(C(O)CC(C)C)ccc2c1C(=O)OCc1cc(C)cc(O)c1O2 (stereo not shown) [Compound IA, penicillide]
growth of Chinese cabbage seedlings: markedly inhibits the growth
